Counter-ions that a name gives are not always drawn.
Legend:
Format in all cases: physicochemical
[1] = Calculated glass transition temperature, 2/3 of the crystalline melting temperature in Kelvin (Beaman's rule); settings: crystalline melting points around 60° C. (base) and 203° C. (hydrogen fumarate)
Experimental: (§1) The terms “actual glass transition temperature” and “calculated glass transition temperature” as used herein refers to the measured (actual) and theoretical (calculated) glass transition temperature associated with a specific compound of Formula (I) or compound of Formula (I) salt. The actual glass transition temperature is determined from the DSC thermogram for the amorphous material, which is exemplified in example 1 and depicted in FIG. 2. The calculated glass transition temperature is calculated as ⅔ of the melting temperature (in Kelvin) of the crystalline form. FIG. 1 illustrate DSC thermograms of crystalline forms of compound (Ia), from which the melting temperature can be determined. The calculation procedure for estimation of the glass transition temperature is described in example 1.
The glass transition temperature can be estimated as ⅔ of the melting temperature of the crystalline material (measured in Kelvin). This relationship is known as the “Beaman's rule” and applies to a wide range of both organic, inorganic, simple and polymeric materials. (Beaman, R. G. Journal of Polymer Science, 1952, 9(5): 470-472).
(§2) As stated in the description of the present application, it is generally recognized that the glass transition temperature can be estimated as ⅔ of the melting temperature of the crystalline material (measured in Kelvin). From the DSC thermograms in FIG. 1 (left), it is seen that the crystalline base of compound (Ia) has an endothermic peak around 60° C. corresponding to the melting of the crystals. Based on the melting temperature of the crystalline base of compound (la), the calculated glass transition temperature of the amorphous form of this compound is thus ⅔*(60° C.+273)=222 K or −51° C. […] This means that the actual measured Tg of this amorphous form is around 5° C. and not −51° C. as calculated using the Beaman Rule.
(§3) Similar experiments were performed with the hydrogen fumarate of compound (Ia). Here the calculated Tg was based on the observed endothermic peak around 203° C. corresponding to the melting of the crystal (FIG. 1—right). Consequently, the calculated Tg is ⅔ *(203° C.+273)=317 K or 44° C. The thermogram of the amorphous form is shown in FIG. 2 (right) and depicts a change in heat capacity around 66° C. corresponding to a glass transition. This means that the actual measured Tg of the amorphous hydrogen fumarate of compound (Ia) is around 66° C. and not 44° C. as calculated.

[2] = Recrystallization of amorphous material upon heating above Tg (DSC); settings: DSC thermogram of the amorphous material, FIG. 2
Experimental: (§4) Melting point and glass transition determined on the base of compound (Ia): Sample of 2-3 mg was packed into Tzero aluminum hermetic pans with a perforated lid and heated 1° C./min to 80° C. (giving the melting point), kept isothermal for 2 min., equilibrated at −50° C., and heated 10° C./min to 110° C. (giving the glass transition of the formed amorphous solid).
Melting point and glass transition of the hydrogen fumarate of compound (Ia): Sample heated 1° C./min to 210° C. (giving the melting point), kept isothermal for 2 min., equilibrated at −50° C., and heated 10° C./min to 230° C. (giving the glass transition of the formed amorphous solid).

[3] = Actual glass transition temperature (Tg) of the amorphous form by DSC; settings: amorphous form made by melt quenching in the DSC pan, heated 10° C./min
Experimental: as §1, §2, §3
Different scanning programs are used depending on the purpose of the analysis as given in example 9. In all DSC-experiments, 2-5 mg sample is packed into Tzero aluminum hermetic pans with a perforated lid, and the measurement is performed under 50 mL/min dry nitrogen gas purge.
as §4, with “solid). […]” for “solid).”

[4] = Physical stability of amorphous solids by XRPD on storage at ambient conditions; settings: ambient conditions (15-35 degrees Celsius, 15-75 percent RH), 96 hours, 1, 4, 9 weeks, 5, 8, 12 months
Experimental: The term “ambient conditions” as used herein refers to conditions with a temperature range of 15-35 degrees Celsius and a relative humidity range of 15-75 percent.
X-Ray powder diffractograms were measured on a PANalytical X′Pert PRO X-Ray Diffractometer using CuKα1 radiation (λ=1.5406 Å). The samples were measured in reflection mode in the 2θ-range 3-40° using an X'celerator detector. (See FIGS. 3, 4 and 5).
The amorphous base and the fumarate salt of compound (Ia) were analyzed using XRPD to determine the physical stability of these solid forms. The presence of a substantially amorphous solid form was confirmed by a diffuse halo XRPD pattern similar to FIG. 3, which is characteristic for a solid amorphous form.
The short-term physical stability of the amorphous solids was analyzed immediately after preparation; the samples were analyzed by XRPD for 96 hours consecutively by alternating measurements every 2 hours. The long-term stability was then assessed by storing the amorphous solids under ambient conditions and analyzing them by XRPD after 1, 4 and 9 weeks as well as 5, 8 and 12 months.

Row | calculated glass transition temperature Tg [1] [°C] | calculated glass transition temperature Tg ([1]; listed as amorphous base) | actual (measured) glass transition temperature Tg [3] | actual (measured) glass transition temperature Tg ([3]; listed as amorphous base) | calculated glass transition temperature Tg ([1]; listed as amorphous hydrogen fumarate salt of compound (Ia)) [°C] | actual (measured) glass transition temperature Tg ([3]; listed as amorphous hydrogen fumarate salt) [°C] | SMILES | recrystallization upon heating above the glass transition [2] | physical stability of the amorphous solid (XRPD pattern) ([4]; listed as free base) | physical stability of the amorphous solid (XRPD pattern) [4]
1 | −51 | about −51 °C | around 5 °C | about 4 °C | – | – | [2H]c1c([2H])c([2H])c([C@@H]2C[C@@H](N3CCN(C([2H])([2H])[2H])C(C)(C)C3)c3cc(Cl)ccc32)c([2H])c1[2H] [amorphous base of compound (Ia)] | do not recrystallize easily above the glass transitions | weak indication of crystallization of the free base after 5 months | –
2 | 44 | – | around 66 °C | – | ~44 | 66 | [2H]c1c([2H])c([2H])c([C@@H]2C[C@@H](N3CCN(C([2H])([2H])[2H])C(C)(C)C3)c3cc(Cl)ccc32)c([2H])c1[2H] [amorphous hydrogen fumarate of compound (Ia)] | do not recrystallize easily above the glass transitions | – | substantially amorphous solids at all timepoints

Source: US20210395208A1, “AMORPHOUS COMPOUNDS OF FORMULA (I) AND AMORPHOUS COMPOUNDS OF FORMULA (I) SALTS” (H. Lundeck A/S, priority 2018, published 2021)
